Measured values taken from patent publication US20220002279A1, “NOVEL IMIDAZOLE DERIVATIVE” (priority 2018, published 2022).
In brackets after ≈: the same amount, converted by molar mass. Where two headings read alike, the source gives them in different places.

Tests used:
[1] = tested on: Escherichia coli strain ATCC25922; assay: Antimicrobial activity, MIC by broth microdilution; assay type: cell-based; details: ATCC25922, 18 h, cation-adjusted Mueller-Hinton broth, about 5×10^5 CFU/mL, 35° C., about 18 hours, read-out: MIC Escherichia coli ATCC25922
Excerpt: (§1) Test Example 4 Evaluation of the Antimicrobial Activity
(§2) For minimum inhibitory concentration (MIC) measurement, the following broth microdilution method was applied as adapted from the standard procedure recommended by the CLSI (Clinical and Laboratory Standards Institute).
(§3) The bacteria used were Pseudomonas aeruginosa strain ATCC27853, Escherichia coli strain ATCC25922, and Klebsiella pneumoniae strain ATCC13883. After culture overnight on a heart infusion agar medium, the cells of a test bacterium were scraped off, and a bacterial solution suspended to have a turbidity of level 0.5 on the McFarland scale was diluted and used as an inoculum solution. The inoculum solution was inoculated in a cation-adjusted Mueller-Hinton broth medium containing a test compound so that the final inoculation concentration was about 5×10^5 CFU/mL, and cultured at 35° C. for about 18 hours. A minimum drug concentration at which no cell growth was visible to the naked eye was designated as MIC. […] In the table, ND represents the case where suppression of the cell growth in a drug concentration-dependent manner was not observed (Not Determined), and NT represents that no test was conducted (Not Tested).

[2] = tested on: Pseudomonas aeruginosa strain ATCC27853; assay: Antimicrobial activity, MIC by broth microdilution; assay type: cell-based; details: ATCC27853, 18 h, cation-adjusted Mueller-Hinton broth, about 5×10^5 CFU/mL, 35° C., about 18 hours, read-out: MIC Pseudomonas aeruginosa ATCC27853
Excerpt: as §1, §2, §3

[3] = tested on: Klebsiella pneumoniae strain ATCC13883; assay: Antimicrobial activity, MIC by broth microdilution; assay type: cell-based; details: ATCC13883, cation-adjusted Mueller-Hinton broth, about 5×10^5 CFU/mL, 35° C., about 18 hours, read-out: MIC Klebsiella pneumoniae ATCC13883
Excerpt: as §1, §2, §3

[4] = biological target: T1, Escherichia coli LpxC enzyme (Escherichia coli, UniProt P0A725); assay: Inhibitory activity on Escherichia coli LpxC enzyme (fluorescamine method); assay type: biochemical
T1 construct: made in house; host or cells: Escherichia coli
T1 sequence (P0A725 1-305): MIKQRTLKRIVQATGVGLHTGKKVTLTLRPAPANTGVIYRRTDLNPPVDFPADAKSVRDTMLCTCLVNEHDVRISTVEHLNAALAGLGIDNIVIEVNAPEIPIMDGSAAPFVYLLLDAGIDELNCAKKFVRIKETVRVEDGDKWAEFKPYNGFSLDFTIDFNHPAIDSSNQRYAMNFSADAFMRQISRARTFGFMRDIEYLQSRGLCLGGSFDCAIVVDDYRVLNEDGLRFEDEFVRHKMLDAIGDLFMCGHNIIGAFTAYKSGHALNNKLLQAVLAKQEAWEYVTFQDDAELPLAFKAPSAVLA
Method: To assay the activity of Escherichia coli LpxC enzyme, LpxC was reacted with its substrate, UDP-3-O-(R-3-hydroxymyristoyl)-N-acetylglucosamine, and the amount of the reaction product was quantified by the amino groups present in the product
The reaction was terminated by the addition of 1.0 mg/mL-fluorescamine dissolved in a solvent obtained by mixing an equal amount of acetonitrile and dimethylformamide with the reaction mixture, and then, a 0.2 mol/L-sodium phosphate buffer solution (pH 8.0) was added thereto, and the amount of the reaction product was detected at an excitation wavelength/fluorescence wavelength=390 nm/495 nm. An inhibition curve was obtained by performing the aforementioned reaction in the presence of various concentrations of test compounds.

[5] = fluorescamine detection, 3.1 nmol/L enzyme, 20 μmol/L substrate, pH 6.5, 120 min, read-out: IC50 (inhibitory activity on Escherichia coli LpxC enzyme, Fluoresamine method)

| SMILES | MIC [1] | MIC [2] | MIC [3] | IC50 [4, 5] | IC50 [4] |
| --- | --- | --- | --- | --- | --- |
| COCCN1C[C@@H]2[C@@H](C#Cc3ccc(-c4cc(Cn5ccnc5[C@H](C)O)no4)cc3)[C@@H]2C1 [Compound 34, (1S)-1-(1-{[5-(4-{[(1R,5S,6s)-3-(2-methoxyethyl)-3-azabicyclo[3.1.0]hexan-6-yl]ethynyl}phenyl)-1,2-oxazol-3-yl]methyl}-1H-imidazol-2-yl)ethan-1-ol] | 0.25 µg/mL (≈ 0.578 µM) | 8 µg/mL (≈ 18.5 µM) | 0.5 µg/mL (≈ 1.16 µM) | 108 nM | – |
| C[C@H](O)c1nccn1Cc1cc(-c2ccc(C#CC3(C)CN(C)C3)cc2)on1 [Compound 35, (1S)-1-{1-[(5-{4-[(1,3-dimethylazetidin-3-yl)ethynyl]phenyl}-1,2-oxazol-3-yl)methyl]-1H-imidazol-2-yl}ethan-1-ol] | 4 µg/mL (≈ 10.6 µM) | > 128 µg/mL | 16 µg/mL (≈ 42.5 µM) | 815 nM | – |
| C[C@H](O)c1nccn1Cc1cc(-c2ccc(C#C[C@@H]3[C@H]4CN(C)C[C@@H]34)cc2)on1 [Compound 36, (1S)-1-(1-{[5-(4-{[(1R,5S,6s)-3-methyl-3-azabicyclo[3.1.0]hexan-6-yl]ethynyl}phenyl)-1,2-oxazol-3-yl]methyl}-1H-imidazol-2-yl)ethan-1-ol] | 0.5 µg/mL (≈ 1.29 µM) | 16 µg/mL (≈ 41.2 µM) | 1 µg/mL (≈ 2.57 µM) | 98.7 nM | – |
| CC(=O)N1C[C@@H]2[C@@H](C#Cc3ccc(-c4cc(Cn5ccnc5[C@H](C)O)no4)cc3)[C@@H]2C1 [Compound 37, 1-[(1R,5S,6s)-6-({4-[3-({2-[(1S)-1-Hydroxyethyl]-1H-imidazol-1-yl}methyl)-1,2-oxazol-5-yl]phenyl}ethynyl)-3-azabicyclo[3.1.0]hexan-3-yl]ethan-1-one] | 1 µg/mL (≈ 2.4 µM) | 32 µg/mL (≈ 76.8 µM) | 2 µg/mL (≈ 4.8 µM) | 58.2 nM | – |
| C[C@H](O)c1nccn1[C@H](CN(C)C)c1cc(-c2ccc(C#C[C@@H]3[C@H]4CN(CCO)C[C@@H]34)cc2)on1 [Compound 39, (1S)-1-(1-{(1R)-2-(Dimethylamino)-1-[5-(4-{[(1R,5S,6s)-3-(2-hydroxyethyl)-3-azabicyclo[3.1.0]hexan-6-yl]ethynyl}phenyl)-1,2-oxazol-3-yl]ethyl}-1H-imidazol-2-yl)ethan-1-ol] | 2 µg/mL (≈ 4.21 µM) | 8 µg/mL (≈ 16.8 µM) | 4 µg/mL (≈ 8.41 µM) | 1820 nM | – |
| COCCN1CC(C)(C#Cc2ccc(-c3cc(Cn4ccnc4[C@H](C)O)no3)cc2)C1 [Compound 41, (1S)-1-(1-{[5-(4-{[l-(2-methoxyethyl)-3-methylazetidin-3-yl]ethynyl}phenyl)-1,2-oxazol-3-yl]methyl}-1H-imidazol-2-yl)ethan-1-ol] | 2 µg/mL (≈ 4.76 µM) | > 128 µg/mL | 4 µg/mL (≈ 9.51 µM) | 231 nM | – |
| C[C@H](O)c1nccn1Cc1cc(-c2ccc(C#C[C@@H]3[C@H]4CN(CC5COC5)C[C@@H]34)cc2)on1 [Compound 42, (1S)-1-[1-({5-[4-({(1R,5S,6s)-3-[(Oxetan-3-yl)methyl]-3-azabicyclo[3.1.0]hexan-6-yl}ethynyl)phenyl]-1,2-oxazol-3-yl}methyl)-1H-imidazol-2-yl]ethan-1-ol] | 0.25 µg/mL (≈ 0.562 µM) | 16 µg/mL (≈ 36 µM) | 0.5 µg/mL (≈ 1.12 µM) | 46.8 nM | – |
| C[C@H](O)c1nccn1Cc1cc(-c2ccc(C#CC(C)(C)C)cc2)on1 [Compound 43, (1S)-1-[1-({5-[4-(3,3-dimethylbut-1-yn-1-yl)phenyl]-1,2-oxazol-3-yl}methyl)-1H-imidazol-2-yl]ethan-1-ol] | 1 µg/mL (≈ 2.86 µM) | > 32 µg/mL | 2 µg/mL (≈ 5.72 µM) | 47.1 nM | – |
| C[C@H](O)c1nccn1Cc1cc(-c2ccc(C#CC3COC3)cc2)on1 [Compound 44, (1S)-1-{1-[(5-{4-[(oxetan-3-yl)ethynyl]phenyl}-1,2-oxazol-3-yl)methyl]-1H-imidazol-2-yl}ethan-1-ol] | 2 µg/mL (≈ 5.72 µM) | 128 µg/mL (≈ 366 µM) | 2 µg/mL (≈ 5.72 µM) | 22.7 nM | – |
| CNC1(C#Cc2ccc(-c3cc(Cn4ccnc4[C@H](C)O)no3)cc2)CC1 [Compound 45, (1S)-1-(1-{[5-(4-{[1-(Methylamino)cyclopropyl]ethynyl}phenyl)-1,2-oxazol-3-yl]methyl}-1H-imidazol-2-yl)ethan-1-ol] | 0.25 µg/mL (≈ 0.69 µM) | 128 µg/mL (≈ 353 µM) | 0.5 µg/mL (≈ 1.38 µM) | – | 268 nM |
| C[C@H](O)c1nccn1Cc1cc(-c2ccc(C#CC3C4COCC34)cc2)on1 (stereo partly drawn) [Compound 46, (1S)-1-{1-[(5-{4-[(3-oxabicyclo[3.1.0]hexan-6-yl)ethynyl]phenyl}-1,2-oxazol-3-yl)methyl]-1H-imidazol-2-yl} ethan-1-ol] | 0.12 µg/mL (≈ 0.32 µM) | > 32 µg/mL | 0.12 µg/mL (≈ 0.32 µM) | 13.4 nM | – |
| C[C@H](O)c1nccn1Cc1cc(-c2ccc(C#CC3(C)COC3)cc2)on1 [Compound 47, (1S)-1-{1-[(5-{4-[(3-methyloxetan-3-yl)ethynyl]phenyl}-1,2-oxazol-3-yl)methyl]-1H-imidazol-2-yl} ethan-1-ol] | 0.5 µg/mL (≈ 1.38 µM) | > 128 µg/mL | 1 µg/mL (≈ 2.75 µM) | 19.3 nM | – |
| C[C@H](O)c1nccn1Cc1cc(-c2ccc(C#CCO)cc2)on1 [Compound 48, 3-{4-[3-((2-[(1S)-1-hydroxyethyl]-1H-imidazol-1-yl}methyl)-1,2-oxazol-5-yl]phenyl}prop-2-yn-1-ol] | 16 µg/mL (≈ 49.5 µM) | > 32 µg/mL | 32 µg/mL (≈ 99 µM) | 362 nM | – |
| C[C@H](O)c1nccn1Cc1cc(-c2ccc(C#CC3CCOC3)cc2)on1 (stereo partly drawn) [Compound 49, (1S)-1-{1-[(5-{4-[(oxolan-3-yl)ethynyl]phenyl}-1,2-oxazol-3-yl)methyl]-1H-imidazol-2-yl}ethan-1-ol] | 0.5 µg/mL (≈ 1.38 µM) | > 32 µg/mL | 1 µg/mL (≈ 2.75 µM) | 29.6 nM | – |
| C[C@H](O)c1nccn1Cc1cc(-c2ccc(C#CC3(N(C)C)CC3)cc2)on1 [Compound 50, (1S)-1-(1-{[5-(4-{[1-(dimethylamino)cyclopropyl]ethynyl}phenyl)-1,2-oxazol-3-yl]methyl}-1H-imidazol-2-yl)ethan-1-ol] | 2 µg/mL (≈ 5.31 µM) | > 128 µg/mL | 4 µg/mL (≈ 10.6 µM) | 205 nM | – |
| C[C@H](O)c1nccn1Cc1cc(-c2ccc(C#CCNC3CC3)cc2)on1 [Compound 51, (1S)-1-{1-[(5-(4-[3-(cyclopropylamino)prop-1-yn-1-yl]phenyl}-1,2-oxazol-3-yl)methyl]-1H-imidazol-2-yl}ethan-1-ol] | 1 µg/mL (≈ 2.76 µM) | > 32 µg/mL | 2 µg/mL (≈ 5.52 µM) | 182 nM | – |
| C[C@H](O)c1nccn1Cc1cc(-c2ccc(C#CC3(O)CC3)cc2)on1 [Compound 52, 1-({4-[3-({2-[(1S)-1-hydroxyethyl]-1H-imidazol-1-yl}methyl)-1,2-oxazol-5-yl]phenyl}ethynyl)cyclopropan-1-ol] | 2 µg/mL (≈ 5.72 µM) | 128 µg/mL (≈ 366 µM) | 4 µg/mL (≈ 11.4 µM) | 83.5 nM | – |
| COCC#Cc1ccc(-c2cc(Cn3ccnc3[C@H](C)O)no2)cc1 [Compound 53, (1S)-1-[l-((5-[4-(3-methoxyprop-1-yn-1-yl)phenyl]-1,2-oxazol-3-yl}methyl)-1H-imidazol-2-yl]ethan-1-ol] | 4 µg/mL (≈ 11.9 µM) | > 128 µg/mL | 2 µg/mL (≈ 5.93 µM) | 81.7 nM | – |
| CC(O)CN1C[C@@H]2[C@@H](C#Cc3ccc(-c4cc(Cn5ccnc5[C@H](C)O)no4)cc3)[C@@H]2C1 (stereo partly drawn) [Compound 55, 1-[(1R,5S,6s)-6-({4-[3-({2-[(1S)-1-hydroxyethyl]-1H-imidazol-1-yl}methyl)-1,2-oxazol-5-yl]phenyl}ethynyl)-3-azabicyclo[3.1.0]hexan-3-yl]propan-2-ol] | 0.5 µg/mL (≈ 1.16 µM) | 16 µg/mL (≈ 37 µM) | 1 µg/mL (≈ 2.31 µM) | 97.7 nM | – |
| C[C@H](O)c1nccn1Cc1cc(-c2ccc(C#C[C@@H]3[C@H]4CN(C(CO)CO)C[C@@H]34)cc2)on1 [Compound 56, 2-[(1R,5S,6s)-6-({4-[3-((2-[(1S)-1-hydroxyethyl]-1H-imidazol-1-yl}methyl)-1,2-oxazol-5-yl]phenyl}ethynyl)-3-azabicyclo[3.1.0]hexan-3-yl]propan-1,3-diol] | 1 µg/mL (≈ 2.23 µM) | 8 µg/mL (≈ 17.8 µM) | 2 µg/mL (≈ 4.46 µM) | 83.7 nM | – |
